Assay [1] has as its system pseudomonas aeruginosa (ATCC 15442). As to the kind of experiment: 27 hour kinetic growth assay using a redox active dye. The settings on record: 25 uL test material in TSB, 27 hour kinetic assay. The assay is classed as cell-based. The method, then: (§1) Conjugated linoleic acid (80%) and conjugated linoleic acid diglyceride, containing both trans and cis isomers, were used to show persisting reduction of bacterial growth over several hours. Each measure was accomplished in separate wells. Each well received a unique combination of the following, including controls. Conjugated linoleic acid 80% and conjugated linoleic acid diglyceride, 25 uL were each separately added to Trypticase Soy Broth (TSB). To each solution was added 75 uL TSB plus 50 uL staphylococcus aureus (ATCC 6366) or pseudomonas aeruginosa (ATCC 15442). This was then entered into a 27 hour kinetic assay using a redox active dye to monitor growth. Appropriate controls were simultaneously run.

The subject of assay [2] is staphylococcus aureus (ATCC 6366). Described as above. The assay is classed as cell-based. The settings on record: 25 uL test material in TSB, 27 hour kinetic assay. The method, then: as §1
The nature of assay [3]: direct application of oil to skin with acne. Particulars: applied twice daily directly to skin; after 24 hours. The assay is classed as in vivo. The source says:
CLA free fatty acid oil was applied twice daily directly to skin with acne.

Regarding “conjugated linoleic acid [conjugated linoleic free fatty acid]”, in assay [1], the “reduction in bacterial growth beginning at” value stood at 200 min and the “reduction in bacterial growth sustained for” value is 27 h. For the same substance, in assay [2], the “reduction in bacterial growth beginning at” value is 30 min and the “reduction in bacterial growth sustained for” value came out at 20 h. Moreover, in assay [3], the “size and redness of the acne” value is “substantial reduction in the size and redness of the acne”.

In the case of “conjugated linoleic acid diglyceride [conjugated linoleic diglyceride]”, in assay [1], the “reduction in bacterial growth beginning at” value is 200 min and the “reduction in bacterial growth sustained for” value was determined as 27 h. For the same substance, in assay [2], the “reduction in bacterial growth beginning at” value amounted to 30 min and the “reduction in bacterial growth sustained for” value came out at 20 h.

These data come from patent US9962354B2, “Method and composition for bacterial or fungal suppression on skin” (priority 2009, dated 2018).
